Measurements published in ChEMBL document CHEMBL5696442, “Discovery of type II inhibitors of TGFβ-activated kinase 1 (TAK1) and mitogen-activated protein kinase kinase kinase kinase 2 (MAP4K2)” (J Med Chem, 2015).
Calls of active or inactive are those of the source. No cut-off for these calls is given here.

Assays:
[1] = target: Insulin receptor (Homo sapiens) (UniProt P06213); assay: Inhibition of INSR (unknown origin) at 1 uM by Ambit Kinomescan binding assay relative to control; values are per cent of control
[2] = system: Epidermal growth factor receptor (Homo sapiens), P00533 [G719C]; assay: Inhibition of EGFR G719C mutant (unknown origin) at 1 uM by Ambit Kinomescan binding assay relative to control
Ephrin type-A receptor 2 = Ephrin type-A receptor 2 (Homo sapiens, UniProt P29317); assay: Inhibition of EPHA2 (unknown origin) at 1 uM by Ambit Kinomescan binding assay relative to control
[3] = target: Ephrin type-B receptor 6 (Homo sapiens) (UniProt O15197); assay: Inhibition of EPHB6 (unknown origin) at 1 uM by Ambit Kinomescan binding assay relative to control; values are per cent of control
[4] = target: Tyrosine-protein kinase BTK (Homo sapiens) (UniProt Q06187); assay: Inhibition of BTK (unknown origin) at 1 uM by Ambit Kinomescan binding assay relative to control
[5] = target: 5'-AMP-activated protein kinase catalytic subunit alpha-1 (Homo sapiens) (UniProt Q13131); assay: Inhibition of AMPKa1 Lys1 labeling site in human A-375 cells at 0.5 uM by KiNativ Profiling analysis relative to control; type: cell-based
[6] = target: Serine/threonine-protein kinase 38-like (Homo sapiens) (UniProt Q9Y2H1); assay: Inhibition of NDR2 Lys2 labeling site in human A-375 cells at 0.5 uM by KiNativ Profiling analysis relative to control; type: cell-based
[7] = system: Serine/threonine-protein kinase B-raf (Homo sapiens), P15056 [V600E]; assay: Inhibition of BRAF V600E mutant (unknown origin) at 1 uM by Ambit Kinomescan binding assay relative to control
[8] = target: T1, NUAK family SNF1-like kinase 2 (Homo sapiens) (UniProt Q9H093); assay: Inhibition of SNARK (unknown origin) at 1 uM by Ambit Kinomescan binding assay relative to control
T1 sequence (whole entry): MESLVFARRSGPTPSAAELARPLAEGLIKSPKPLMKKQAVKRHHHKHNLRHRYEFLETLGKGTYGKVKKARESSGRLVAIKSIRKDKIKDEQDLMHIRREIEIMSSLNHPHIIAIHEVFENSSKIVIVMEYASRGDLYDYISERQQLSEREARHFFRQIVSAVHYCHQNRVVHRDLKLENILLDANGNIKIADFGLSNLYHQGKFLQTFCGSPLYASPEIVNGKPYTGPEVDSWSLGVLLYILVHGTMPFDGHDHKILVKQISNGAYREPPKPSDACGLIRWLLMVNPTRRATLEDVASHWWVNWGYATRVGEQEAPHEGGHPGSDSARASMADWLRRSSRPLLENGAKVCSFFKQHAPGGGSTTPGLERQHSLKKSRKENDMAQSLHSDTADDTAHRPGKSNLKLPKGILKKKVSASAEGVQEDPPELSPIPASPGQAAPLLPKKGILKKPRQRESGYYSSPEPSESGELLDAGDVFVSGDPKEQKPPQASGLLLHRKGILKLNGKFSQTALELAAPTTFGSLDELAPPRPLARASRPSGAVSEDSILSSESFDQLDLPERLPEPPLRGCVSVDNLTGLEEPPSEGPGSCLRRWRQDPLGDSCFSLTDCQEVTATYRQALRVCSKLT

[9] = target: Cyclin-dependent kinase 9 (Homo sapiens) (UniProt P50750); assay: Inhibition of CDK9 K2 labeling site in human Huh-7 cells at 10 uM by KiNativ Profiling analysis relative to control; type: cell-based
[10] = target: Ribosomal protein S6 kinase alpha-4 (Homo sapiens) (UniProt O75676); assay: Inhibition of C-terminal RPS6KA4 kinase domain 2 (unknown origin) at 10 uM by Ambit Kinomescan binding assay; values are per cent of control
[11] = target: Serine/threonine-protein kinase RIO3 (Homo sapiens) (UniProt O14730); assay: Inhibition of RIOK3 (unknown origin) at 10 uM by Ambit Kinomescan binding assay
[12] = target: Serine/threonine-protein kinase BRSK2 (Homo sapiens) (UniProt Q8IWQ3); assay: Inhibition of BRSK2 (unknown origin) at 10 uM by Ambit Kinomescan binding assay
[13] = target: T2, Serine/threonine-protein kinase tousled-like 1 (Homo sapiens) (UniProt Q9UKI8); assay: Inhibition of TLK1 (unknown origin) at 10 uM by Ambit Kinomescan binding assay
T2 sequence (whole entry): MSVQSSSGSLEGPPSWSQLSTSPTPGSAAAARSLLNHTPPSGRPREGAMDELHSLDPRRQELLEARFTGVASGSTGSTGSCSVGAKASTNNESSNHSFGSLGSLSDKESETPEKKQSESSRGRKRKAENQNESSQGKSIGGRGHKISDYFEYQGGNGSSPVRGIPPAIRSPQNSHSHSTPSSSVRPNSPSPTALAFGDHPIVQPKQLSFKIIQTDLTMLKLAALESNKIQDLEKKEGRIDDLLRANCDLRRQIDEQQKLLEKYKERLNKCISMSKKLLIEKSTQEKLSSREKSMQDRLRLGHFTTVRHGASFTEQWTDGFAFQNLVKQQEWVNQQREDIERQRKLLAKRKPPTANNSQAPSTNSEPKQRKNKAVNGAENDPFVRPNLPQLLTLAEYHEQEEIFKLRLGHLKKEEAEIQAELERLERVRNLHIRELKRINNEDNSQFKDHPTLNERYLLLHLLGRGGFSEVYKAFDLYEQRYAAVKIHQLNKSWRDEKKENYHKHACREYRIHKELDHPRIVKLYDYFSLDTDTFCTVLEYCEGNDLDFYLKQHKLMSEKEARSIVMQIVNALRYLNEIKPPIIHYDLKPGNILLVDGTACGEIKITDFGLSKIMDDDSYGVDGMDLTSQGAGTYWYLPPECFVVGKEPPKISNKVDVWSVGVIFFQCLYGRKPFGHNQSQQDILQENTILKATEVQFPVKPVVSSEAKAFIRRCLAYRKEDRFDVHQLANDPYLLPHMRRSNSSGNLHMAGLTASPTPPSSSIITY

[14] = target: TRAF2 and NCK-interacting protein kinase (Homo sapiens) (UniProt Q9UKE5); assay: Inhibition of ZC2/TNIK Lys2 labeling site in human A-375 cells at 5 uM by KiNativ Profiling analysis relative to control; type: cell-based
[15] = target: Phosphatidylinositol 4-kinase alpha (Homo sapiens) (UniProt P42356); assay: Inhibition of PI4KA ATP labeling site in human Huh-7 cells at 1 uM by KiNativ Profiling analysis relative to control; type: cell-based
[16] = target: Serine-protein kinase ATM (Homo sapiens) (UniProt Q13315); assay: Inhibition of ATM ATP labeling site in human Huh-7 cell lysate at 1 uM by KiNativ Profiling analysis relative to control; type: subcellular
[17] = target: Mitogen-activated protein kinase kinase kinase 1 (Homo sapiens) (UniProt Q13233); assay: Inhibition of MAP3K1 Lys2 labeling site in human Huh-7 cells at 1 uM by KiNativ Profiling analysis relative to control; type: cell-based

Chain of Ephrin type-A receptor 2 (P29317 whole entry): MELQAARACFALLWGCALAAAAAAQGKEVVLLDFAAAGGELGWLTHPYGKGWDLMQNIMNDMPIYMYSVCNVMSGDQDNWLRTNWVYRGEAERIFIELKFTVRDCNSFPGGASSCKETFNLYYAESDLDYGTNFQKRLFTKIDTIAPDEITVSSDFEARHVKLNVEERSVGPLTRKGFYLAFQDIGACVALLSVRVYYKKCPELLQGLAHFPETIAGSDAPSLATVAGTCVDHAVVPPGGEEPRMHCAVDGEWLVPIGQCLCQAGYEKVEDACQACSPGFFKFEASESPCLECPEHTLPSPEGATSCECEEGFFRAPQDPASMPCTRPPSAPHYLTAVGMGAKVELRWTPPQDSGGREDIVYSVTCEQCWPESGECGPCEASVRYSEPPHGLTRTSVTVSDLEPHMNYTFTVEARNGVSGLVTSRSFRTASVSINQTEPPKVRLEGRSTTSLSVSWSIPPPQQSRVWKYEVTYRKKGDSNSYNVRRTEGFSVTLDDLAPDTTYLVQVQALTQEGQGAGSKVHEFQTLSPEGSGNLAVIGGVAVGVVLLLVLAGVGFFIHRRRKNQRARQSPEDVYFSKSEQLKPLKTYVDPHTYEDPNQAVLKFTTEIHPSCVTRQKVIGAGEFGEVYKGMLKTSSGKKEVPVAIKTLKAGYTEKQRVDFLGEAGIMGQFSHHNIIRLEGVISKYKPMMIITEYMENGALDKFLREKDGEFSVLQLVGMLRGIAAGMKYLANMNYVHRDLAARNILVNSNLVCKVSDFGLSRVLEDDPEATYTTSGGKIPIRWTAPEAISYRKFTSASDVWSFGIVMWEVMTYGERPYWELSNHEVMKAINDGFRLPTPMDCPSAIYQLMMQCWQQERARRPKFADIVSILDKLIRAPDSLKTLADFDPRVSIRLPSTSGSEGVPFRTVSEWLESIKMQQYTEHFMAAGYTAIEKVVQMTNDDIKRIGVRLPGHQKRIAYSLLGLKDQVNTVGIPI
Chain of Insulin receptor (Homo sapiens) (P06213 28-758 limits assumed): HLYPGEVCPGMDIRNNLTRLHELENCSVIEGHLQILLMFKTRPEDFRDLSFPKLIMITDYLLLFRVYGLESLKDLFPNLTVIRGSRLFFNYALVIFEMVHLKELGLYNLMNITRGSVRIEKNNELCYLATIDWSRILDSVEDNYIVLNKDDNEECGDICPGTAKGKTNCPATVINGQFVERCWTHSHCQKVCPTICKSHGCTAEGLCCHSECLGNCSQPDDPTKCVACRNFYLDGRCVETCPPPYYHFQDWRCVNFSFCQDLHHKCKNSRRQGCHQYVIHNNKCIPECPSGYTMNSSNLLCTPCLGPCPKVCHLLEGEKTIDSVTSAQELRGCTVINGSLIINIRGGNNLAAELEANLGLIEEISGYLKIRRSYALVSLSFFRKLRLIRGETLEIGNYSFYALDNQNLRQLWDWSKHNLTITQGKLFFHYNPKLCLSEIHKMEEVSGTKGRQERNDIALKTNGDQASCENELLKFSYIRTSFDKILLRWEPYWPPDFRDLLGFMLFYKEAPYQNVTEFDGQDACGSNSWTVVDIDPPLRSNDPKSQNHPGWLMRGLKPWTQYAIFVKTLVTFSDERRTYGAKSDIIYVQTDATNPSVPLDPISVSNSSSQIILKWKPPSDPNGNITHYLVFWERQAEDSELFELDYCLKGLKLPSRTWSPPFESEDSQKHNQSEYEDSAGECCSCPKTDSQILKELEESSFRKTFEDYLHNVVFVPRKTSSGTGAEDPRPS
Chain of Insulin receptor (Homo sapiens) (P06213 763-1382 limits assumed): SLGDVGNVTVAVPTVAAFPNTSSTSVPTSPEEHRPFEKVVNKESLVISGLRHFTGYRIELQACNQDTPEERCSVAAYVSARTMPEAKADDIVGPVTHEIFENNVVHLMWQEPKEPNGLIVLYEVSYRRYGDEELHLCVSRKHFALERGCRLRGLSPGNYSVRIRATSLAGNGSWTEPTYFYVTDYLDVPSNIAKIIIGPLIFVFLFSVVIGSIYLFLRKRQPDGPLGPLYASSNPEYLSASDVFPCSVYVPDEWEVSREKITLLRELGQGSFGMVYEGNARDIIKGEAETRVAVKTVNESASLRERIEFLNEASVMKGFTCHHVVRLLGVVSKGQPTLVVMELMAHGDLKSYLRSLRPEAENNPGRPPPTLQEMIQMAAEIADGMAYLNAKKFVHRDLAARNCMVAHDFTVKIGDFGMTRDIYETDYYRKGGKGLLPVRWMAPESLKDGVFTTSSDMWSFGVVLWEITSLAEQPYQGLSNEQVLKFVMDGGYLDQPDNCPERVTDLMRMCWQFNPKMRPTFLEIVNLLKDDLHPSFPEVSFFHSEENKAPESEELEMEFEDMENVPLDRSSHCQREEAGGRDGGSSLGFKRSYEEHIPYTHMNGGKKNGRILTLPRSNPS
Chain of Ribosomal protein S6 kinase alpha-4 (Homo sapiens) (O75676 whole entry, looked up, the tested form may be a part): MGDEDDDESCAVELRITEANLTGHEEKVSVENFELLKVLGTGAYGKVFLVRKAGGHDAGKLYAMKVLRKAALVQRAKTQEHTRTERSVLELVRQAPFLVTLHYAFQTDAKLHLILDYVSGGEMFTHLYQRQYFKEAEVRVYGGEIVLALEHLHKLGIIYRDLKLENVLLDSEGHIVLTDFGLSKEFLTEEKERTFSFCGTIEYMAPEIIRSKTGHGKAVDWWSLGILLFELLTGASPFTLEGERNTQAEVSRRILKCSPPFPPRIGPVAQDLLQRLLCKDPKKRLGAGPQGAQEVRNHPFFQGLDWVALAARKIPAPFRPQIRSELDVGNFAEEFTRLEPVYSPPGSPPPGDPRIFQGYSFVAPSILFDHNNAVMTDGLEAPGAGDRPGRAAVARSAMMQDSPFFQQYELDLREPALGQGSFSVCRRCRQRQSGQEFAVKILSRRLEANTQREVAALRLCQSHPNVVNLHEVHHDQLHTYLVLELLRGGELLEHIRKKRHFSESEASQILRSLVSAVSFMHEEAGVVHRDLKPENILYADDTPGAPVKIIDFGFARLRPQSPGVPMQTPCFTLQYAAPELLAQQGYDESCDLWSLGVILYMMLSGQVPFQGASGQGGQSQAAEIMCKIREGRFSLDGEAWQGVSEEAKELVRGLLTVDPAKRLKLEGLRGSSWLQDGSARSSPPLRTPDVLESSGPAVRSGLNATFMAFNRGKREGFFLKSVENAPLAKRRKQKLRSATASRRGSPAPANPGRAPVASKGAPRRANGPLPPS
Chain of Cyclin-dependent kinase 9 (Homo sapiens) (P50750 whole entry, the tested form may be a part): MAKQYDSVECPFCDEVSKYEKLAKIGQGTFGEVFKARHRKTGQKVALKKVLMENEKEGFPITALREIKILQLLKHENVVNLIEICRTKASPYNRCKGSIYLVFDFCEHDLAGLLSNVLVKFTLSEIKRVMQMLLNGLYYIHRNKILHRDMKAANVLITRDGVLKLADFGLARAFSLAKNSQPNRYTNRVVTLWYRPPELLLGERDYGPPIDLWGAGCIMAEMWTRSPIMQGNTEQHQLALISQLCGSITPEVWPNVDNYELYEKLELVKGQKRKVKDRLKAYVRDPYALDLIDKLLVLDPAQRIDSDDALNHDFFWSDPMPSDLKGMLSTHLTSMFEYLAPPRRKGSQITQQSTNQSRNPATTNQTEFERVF
Chain of Tyrosine-protein kinase BTK (Homo sapiens) (Q06187 whole entry): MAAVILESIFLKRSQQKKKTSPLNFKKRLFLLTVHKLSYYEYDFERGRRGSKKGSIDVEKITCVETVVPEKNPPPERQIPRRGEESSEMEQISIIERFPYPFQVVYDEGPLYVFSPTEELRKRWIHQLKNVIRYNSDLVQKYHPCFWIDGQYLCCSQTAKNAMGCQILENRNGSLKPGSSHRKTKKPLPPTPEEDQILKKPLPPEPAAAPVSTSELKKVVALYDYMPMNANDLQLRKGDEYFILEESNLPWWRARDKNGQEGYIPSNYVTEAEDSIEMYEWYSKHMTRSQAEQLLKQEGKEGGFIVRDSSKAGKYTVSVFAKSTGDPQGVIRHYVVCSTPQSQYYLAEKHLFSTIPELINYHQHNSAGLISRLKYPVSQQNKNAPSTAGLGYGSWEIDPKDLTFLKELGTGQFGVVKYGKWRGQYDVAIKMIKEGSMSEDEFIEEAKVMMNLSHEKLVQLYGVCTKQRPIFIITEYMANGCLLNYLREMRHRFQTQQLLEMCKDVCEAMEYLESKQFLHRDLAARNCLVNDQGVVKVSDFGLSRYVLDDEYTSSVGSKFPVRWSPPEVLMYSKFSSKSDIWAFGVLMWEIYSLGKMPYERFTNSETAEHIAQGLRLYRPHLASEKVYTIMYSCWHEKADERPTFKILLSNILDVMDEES
Chain of Serine/threonine-protein kinase RIO3 (Homo sapiens) (O14730 whole entry): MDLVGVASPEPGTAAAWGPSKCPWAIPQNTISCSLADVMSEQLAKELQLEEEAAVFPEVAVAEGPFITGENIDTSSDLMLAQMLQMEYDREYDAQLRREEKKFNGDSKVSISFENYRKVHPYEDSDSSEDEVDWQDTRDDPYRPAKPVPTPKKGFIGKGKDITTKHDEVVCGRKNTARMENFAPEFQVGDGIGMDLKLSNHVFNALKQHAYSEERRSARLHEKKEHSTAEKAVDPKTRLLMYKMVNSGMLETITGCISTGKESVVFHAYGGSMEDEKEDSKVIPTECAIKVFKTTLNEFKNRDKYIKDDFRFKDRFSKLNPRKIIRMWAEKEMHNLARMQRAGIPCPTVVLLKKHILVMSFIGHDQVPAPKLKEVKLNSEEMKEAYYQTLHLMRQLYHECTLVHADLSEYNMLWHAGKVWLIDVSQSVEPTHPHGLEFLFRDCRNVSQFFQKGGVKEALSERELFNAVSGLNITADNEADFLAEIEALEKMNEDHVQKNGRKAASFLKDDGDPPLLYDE

## CCN1CCN(Cc2ccc(NC(=O)c3ccc(C)c(/C=C/c4cnc5[nH]ccc5c4OC)c3)cc2C(F)(F)F)CC1
[1]
  residual activity: 78%
[2]
  inhibition: 0.45%
Ephrin type-A receptor 2
  percent of control: 1.2%
[3]
  residual activity: 2.8%
[4]
  inhibition: 10%
[5]
  inhibition: 20.3%
[6]
  inhibition: 13.4%
[7]
  inhibition: 7.4%
[8]
  inhibition: 76%

## CCN1CCN(Cc2ccc(NC(=O)c3ccc(C)c(Oc4ccnc5[nH]ccc45)c3)cc2C(F)(F)F)CC1
[9]
  inhibition: 0.4%
[10]
  percent of control: 4.7%
[11]
  inhibition: inactive
[12]
  inhibition: inactive
[13]
  inhibition: inactive
[14]
  inhibition: 92.7%

## CNc1cc(Oc2cc(C(=O)Nc3cc(N4CCN(C)CC4)cc(C(F)(F)F)c3)ccc2C)ncn1
[15]
  inhibition: 29.8%
[16]
  inhibition: 4.8%
[17]
  inhibition: 27%
